For orientation: IC50 means the concentration that gives 50% inhibition.

Data on two molecules can be found in ChEMBL document CHEMBL1146425, “Two new antiprotozoal 5-methylcoumarins from Vernonia brachycalyx” (J Nat Prod, 1997).

Data set [1] has as its system Plasmodium falciparum. Nature of the data set: Antiplasmodial activity against chloroquine-sensitive Plasmodium falciparum 3D7 by [G-3H]hypoxanthine uptake. It counts as functional, organism-based.
The test system of data set [2] is Plasmodium falciparum. As to the kind of experiment: Antiplasmodial activity against chloroquine-resistant Plasmodium falciparum Dd2 by [G-3H]hypoxanthine uptake. It counts as functional, organism-based.
Data set [3] has as its system Leishmania major. Nature of the data set: Antileishmanial activity against Leishmania major promastigotes assessed as inhibition of [3H]thymidine incorporation after 18 hrs by scintillation counting. It counts as functional, organism-based. (Dividing cells build labelled thymidine or BrdU into new DNA.)
Data set [4] can be described thus: Inhibition of phytohemagglutininin A-induced human lymphocyte proliferation assessed as radiolabeled thymidine uptake. The data set is classed as cell-based.
A short description of data set [5]: Inhibition of phytohemagglutininin A-induced human lymphocyte proliferation assessed as radiolabeled thymidine uptake at < 300 uM. The data set is classed as cell-based.

Molecules are shown by their SMILES.

On to `Cc1cccc2oc(=O)c3c(c12)O[C@@H](C)[C@@]3(C)CC(=O)[C@@H]1OC1(C)C`, for which the IC50 was found to be 160 µM in data set [1], 54 µM in data set [2], 37 µM in data set [3] and 313 µM in data set [4]. Besides, the Activity result in data set [5] is “Not Active”.

Turning to `Cc1cccc2oc(=O)c3c(c12)O[C@H](C)[C@@]3(C)CC(=O)[C@@H]1OC1(C)C` [CYCLOISOBRACHYCOUMARINONE EPOXIDE], the half-maximal inhibitory concentration (IC50) was determined as 111 µM in data set [1], 54 µM in data set [2], 13.4 µM in data set [3] and 1810 µM in data set [4].
